Measured values from US4100285A, “N-substituted trialkoxybenzyl piperazine derivatives” (Nippon Shinyaku Co., Ltd., priority 1976, dated 1978).

How the values were obtained:
[1] = LD50 on mice; conditions: in vivo, ip; mouse
Experimental: (§1) For administration of the compounds of this invention into the human body, it is recommended to give them at the dose of 10 to 500 mg/day for internal administration and 1 to 50 mg/day for intravenous aministration. The compounds can be administered as such or in combination with a pharmaceutical carrier conventionally employed in cardiovascular and like preparations.

[2] = tested on: removed guinea pig heart; experiment: Cardiovascular activity measured according to Langedorff's method by using the removed guinea pig heart; conditions: Concentration 10^-4 g/ml; for Heart Movements: Amplitude / Heart Movements: Tonus: arrow symbols
Experimental: as §1

Structure (SMILES) | LD50 [1] [mg/kg] | Coronary perfusion pressure (Δ%) [2] | Heart rate (Δ%) [2] | Heart Movements: Amplitude [2] | Heart Movements: Tonus [2]
COc1ccc(CN2CCN(CC(O)COc3ccccc3)CC2)c(OC)c1OC (centres unmarked) [Example 14] | 142 | -20.0 Δ% | -48.7 Δ% | .dwnarw. | .dwnarw.
COc1ccc(CN2CCN(CCCCCCCCN3CCN(Cc4ccc(OC)c(OC)c4OC)CC3)CC2)c(OC)c1OC [Example 9] | – | -10.0 Δ% | -28.6 Δ% | .dwnarw. | .dwnarw.
COc1ccc(CN2CCN(CC(O)c3ccccc3)CC2)c(OC)c1OC (centres unmarked) [Example 13] | 106 | -16.0 Δ% | -54.5 Δ% | .dwnarw. | →
COc1ccc(CN2CCN(CCN3CCOCC3)CC2)c(OC)c1OC [Example 4] | 567 | -2.1 Δ% | -8.6 Δ% | .uparw. | →
COc1ccc(CN2CCN(c3nc(N)nc(N)n3)CC2)c(OC)c1OC [Example 3] | – | 4.4 Δ% | -21.9 Δ% | .dwnarw. | →
COc1ccc(CN2CCN(CCCCN3CCN(Cc4ccc(OC)c(OC)c4OC)CC3)CC2)c(OC)c1OC [Example 7] | 239 | -18.8 Δ% | -37.5 Δ% | .dwnarw. | →
COc1ccc(CN2CCN(CC=C(C)C)CC2)c(OC)c1OC [Example 1] | – | 5.7 Δ% | -18.2 Δ% | .dwnarw. | →
COc1ccc(CN2CCN(CC(C)O)CC2)c(OC)c1OC (centres unmarked) [Example 11] | 336 | -11.1 Δ% | -49.4 Δ% | .dwnarw. | →
COc1ccc(CN2CCN(CCO)CC2)c(OC)c1OC [Example 10] | 567 | -4.4 Δ% | -10.7 Δ% | .dwnarw. | .dwnarw.
COc1ccc(CN2CCN(CCN3CCN(Cc4ccc(OC)c(OC)c4OC)CC3)CC2)c(OC)c1OC [Example 6] | – | -3.7 Δ% | -11.7 Δ% | .dwnarw. | →
COc1ccc(CN2CCN(CC=Cc3ccccc3)CC2)c(OC)c1OC [Example 2] | – | -11.1 Δ% | -60.3 Δ% | .dwnarw. | →
COc1ccc(CN2CCN(CC(O)CO)CC2)c(OC)c1OC (centres unmarked) [Example 12] | 724 | – | -16.1 Δ% | .dwnarw. | →
COc1ccc(CN2CCN(CCCCCCN3CCN(Cc4ccc(OC)c(OC)c4OC)CC3)CC2)c(OC)c1OC [Example 8] | 84 | -19.2 Δ% | -19.1 Δ% | .dwnarw. | →
